IC50 data for 31 compounds are collected here from US11964953B2, “Substituted aminothiazoles as DGKzeta inhibitors for immune activation” (Bayer Aktiengesellschaft, priority 2020, dated 2024).

human DGKζ, sequence (Q13574 other isoform, or with tags, fused parts or gaps): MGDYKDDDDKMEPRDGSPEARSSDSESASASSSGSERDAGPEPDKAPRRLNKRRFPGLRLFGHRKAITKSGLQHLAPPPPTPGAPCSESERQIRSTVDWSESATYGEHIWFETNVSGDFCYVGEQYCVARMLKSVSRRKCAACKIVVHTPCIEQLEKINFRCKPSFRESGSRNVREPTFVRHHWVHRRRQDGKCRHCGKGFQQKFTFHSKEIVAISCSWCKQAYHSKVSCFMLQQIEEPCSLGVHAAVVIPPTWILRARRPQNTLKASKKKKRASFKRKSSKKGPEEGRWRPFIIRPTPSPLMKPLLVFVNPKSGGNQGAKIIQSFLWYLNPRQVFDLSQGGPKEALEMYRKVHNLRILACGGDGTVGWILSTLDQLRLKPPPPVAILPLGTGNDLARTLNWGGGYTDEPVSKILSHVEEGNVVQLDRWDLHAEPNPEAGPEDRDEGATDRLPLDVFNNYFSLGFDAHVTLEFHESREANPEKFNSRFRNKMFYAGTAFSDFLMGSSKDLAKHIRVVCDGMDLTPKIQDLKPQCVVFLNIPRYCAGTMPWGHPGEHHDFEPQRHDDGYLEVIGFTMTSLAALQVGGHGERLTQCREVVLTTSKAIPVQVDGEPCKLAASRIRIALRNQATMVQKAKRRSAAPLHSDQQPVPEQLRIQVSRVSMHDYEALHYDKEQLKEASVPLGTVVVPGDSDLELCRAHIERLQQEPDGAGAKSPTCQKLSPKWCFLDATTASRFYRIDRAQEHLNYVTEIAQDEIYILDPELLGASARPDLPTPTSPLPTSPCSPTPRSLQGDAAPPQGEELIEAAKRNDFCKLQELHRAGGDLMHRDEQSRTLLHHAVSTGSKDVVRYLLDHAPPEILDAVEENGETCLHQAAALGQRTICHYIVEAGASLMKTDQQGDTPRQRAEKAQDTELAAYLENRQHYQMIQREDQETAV

The assay concerns the target human DGKζ (Homo sapiens (Human), UniProt Q13574). The assay can be described thus: Human DGKζ kinase activity inhibition assay (ADP-Glo). The class given is biochemical. Particulars: in vitro human DGKζ kinase activity inhibition assay; read-out: IC50. In short, it runs like this:
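Enzyme was C-terminally FLAG-tagged full-length recombinant human DGKζ from baculovirus-infected insect cells. Substrate preparation used octyl-β-D-glucopyranoside in 50 mM MOPS pH 7.4 with sonication; ADP generated was quantified by ADP-Glo luminescence as activity measure.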
A general note: ADP-Glo turns the ADP formed in a reaction into a luminescent signal.
With `CC(C(N)=O)N(c1ccc(F)cc1)c1nc(N)c(C(=O)c2ccc(OC(C)(C)C(=O)NCc3ccc(Cl)cc3)cc2)s1` (racemic) [Example 273, rac-2-[4-[4-amino-2-(N-(2-amino-1-methyl-2-oxo-ethyl)-4-fluoro-anilino)thiazole-5-carbonyl]phenoxy]-N-[(4-chlorophenyl)methyl]-2-methyl-propanamide], the IC50 was found to be 20 nM.

For the compound `CC(C(N)=O)N(c1ccc(F)cc1)c1nc(N)c(C(=O)c2ccc(Br)nc2)s1` (racemic) [Example 274, rac-2-(N-[4-amino-5-(6-bromopyridine-3-carbonyl)thiazol-2-yl]-4-fluoro-anilino)propanamide], the IC50 turned out to be 107 nM.

As to `CC(C(N)=O)N(c1ccc(F)cc1)c1nc(N)c(C(=O)c2ccc(N3CCC(C(F)(F)F)CC3)nc2)s1` (racemic) [Example 275, rac-2-(N-[4-amino-5-[6-[4-(trifluoromethyl)-1-piperidyl]pyridine-3-carbonyl]thiazol-2-yl]-4-fluoro-anilino)propanamide], the IC50 worked out at 29 nM.

Take `CC1CCN(c2ccc(C(=O)c3sc(N(c4ccc(F)cc4)C(C)C(N)=O)nc3N)cn2)CC1` (racemic) [Example 276, rac-2-(N-[4-amino-5-[6-(4-methyl-1-piperidyl)pyridine-3-carbonyl]thiazol-2-yl]-4-fluoro-anilino)propanamide]: the IC50 was 29 nM.

With `CC(C(N)=O)N(c1ccc(F)cc1)c1nc(N)c(C(=O)c2ccc(N3CCC(C4COC4)CC3)nc2)s1` (racemic) [Example 277, rac-2-(N-[4-amino-5-[6-[4-(oxetan-3-yl)-1-piperidyl]pyridine-3-carbonyl]thiazol-2-yl]-4-fluoro-anilino)propanamide], the IC50 was determined as 494 nM.

On to `CC(C(N)=O)N(c1ccc(F)cc1)c1nc(N)c(C(=O)c2ccc(N(C)C)nc2)s1` (racemic) [Example 278, rac-2-(N-[4-amino-5-[6-(dimethylamino)pyridine-3-carbonyl]thiazol-2-yl]-4-fluoro-anilino)propanamide], for which the IC50 worked out at 230 nM.

`CC(C(N)=O)N(c1ccc(F)cc1)c1nc(N)c(C(=O)c2ccc(N3CCC(C)(C)CC3)nc2)s1` (racemic) [Example 279, rac-2-(N-[4-amino-5-[6-(4,4-dimethyl-1-piperidyl)pyridine-3-carbonyl]thiazol-2-yl]-4-fluoro-anilino)propanamide]: the IC50 turned out to be 48 nM.

`CC(C(N)=O)N(c1ccc(F)cc1)c1nc(N)c(C(=O)c2ccc(N3CC4CCC(C4)C3)nc2)s1` (racemic) [Example 280, rac-2-(N-[4-amino-5-[6-(3-azabicyclo[3.2.1]octan-3-yl)pyridine-3-carbonyl]thiazol-2-yl]-4-fluoro-anilino)propanamide]: the IC50 is 43 nM.

Turning to `CC1CC(C)CN(c2ccc(C(=O)c3sc(N(c4ccc(F)cc4)C(C)C(N)=O)nc3N)cn2)C1` (racemic) [Example 281, rac-2-(N-[4-amino-5-[6-(3,5-dimethyl-1-piperidyl)pyridine-3-carbonyl]thiazol-2-yl]-4-fluoro-anilino)propanamide], the IC50 stood at 98 nM.

`CC(C(N)=O)N(c1ccc(F)cc1)c1nc(N)c(C(=O)c2ccc(N3CC4CC4C3)nc2)s1` (racemic) [Example 282, rac-2-(N-[4-amino-5-[6-(3-azabicyclo[3.1.0]hexan-3-yl)pyridine-3-carbonyl]thiazol-2-yl]-4-fluoro-anilino)propanamide]: the IC50 is 53 nM.

As to `CC(C(N)=O)N(c1ccc(F)cc1)c1nc(N)c(C(=O)c2ccc(N3CCCCC3)nc2)s1` (racemic) [Example 283, rac-2-(N-[4-amino-5-[6-(1-piperidyl)pyridine-3-carbonyl]thiazol-2-yl]-4-fluoro-anilino)propanamide], the IC50 amounted to 36 nM.

On to `CC(C(N)=O)N(c1ccc(F)cc1)c1nc(N)c(C(=O)c2ccc(N3CCC(F)(F)CC3)nc2)s1` (racemic) [Example 284, rac-2-(N-[4-amino-5-[6-(4,4-difluoro-1-piperidyl)pyridine-3-carbonyl]thiazol-2-yl]-4-fluoro-anilino)propanamide], for which the IC50 turned out to be 33 nM.

For the compound `CC(C(N)=O)N(c1ccc(F)cc1)c1nc(N)c(C(=O)c2ccc(N3CCC(C)(C#N)CC3)nc2)s1` (racemic) [Example 285, rac-2-(N-[4-amino-5-[6-(4-cyano-4-methyl-1-piperidy!)pyridine-3-carbonyl]thiazol-2-yl]-4-fluoro-anilino)propanamide], the IC50 came out at 68 nM.

On to `CC(C(N)=O)N(c1ccc(F)cc1)c1nc(N)c(C(=O)c2ccc(OCCO)cc2)s1` (racemic) [Example 292, rac-2-(N-[4-amino-5-[4-(2-hydroxyethoxy)benzoyl]thiazol-2-yl]-4-fluoro-anilino)propanamide], for which the IC50 worked out at 282 nM.

For `CC(C(N)=O)N(c1ccc(F)cc1)c1nc(N)c(C(=O)c2ccc(C#N)c(F)c2)s1` (single isomer, unassigned) [Example 21.1, 2-(N-[4-amino-5-(4-cyano-3-fluoro-benzoyl)thiazol-2-yl]-4-fluoro-anilino)propanamide], the IC50 came out at 5510 nM.

Consider `CC(C(N)=O)N(c1ccc(OC(F)(F)F)cc1)c1nc(N)c(C(=O)c2ccc(F)cc2)s1` (single isomer, unassigned) [Example 27.1, 2-[N-[4-amino-5-(4-fluorobenzoyl)thiazol-2-yl]-4-(trifluoromethoxy)anilino]propanamide], for which the IC50 came out at 8650 nM.

As to `CC(C(N)=O)N(c1ccc(OC(F)(F)F)cc1)c1nc(N)c(C(=O)c2ccc(F)cc2)s1` (single isomer, unassigned) [Example 27.2, 2-[N-(4-amino-5-(4-fluorobenzoyl)thiazol-2-yl]-4-(trifluoromethoxy)anilino]propanamide], the IC50 amounted to 43.6 nM.

Turning to `CC(C(N)=O)N(c1ccc(F)cc1)c1nc(N)c(C(=O)c2ccc(C(F)(F)F)nc2)s1` (single isomer, unassigned) [Example 29.1, 2-(N-[4-amino-5-[6-(trifluoromethyl)pyridine-3-carbonyl]thiazol-2-yl]-4-fluoro-anilino)propanamide], the IC50 worked out at 12500 nM.

`CC(C(N)=O)N(c1ccc(F)cc1)c1nc(N)c(C(=O)c2ccc(C(F)(F)F)nc2)s1` (single isomer, unassigned) [Example 29.2, 2-(N-[4-amino-5-[6-(trifluoromethyl)pyridine-3-carbonyl]thiazol-2-yl]-4-fluoro-anilino)propanamide]: the IC50 was 46.2 nM.

Consider `CC(C(N)=O)N(c1ccc(F)cc1)c1nc(N)c(C(=O)c2ccc(C#N)cc2)s1` (single isomer, unassigned) [Example 33.1, 2-(N-[4-amino-5-(4-cyanobenzoyl)thiazol-2-yl]-4-fluoro-anilino)propanamide], for which the IC50 worked out at 8610 nM.

For `CC(C(N)=O)N(c1ccc(F)cc1)c1nc(N)c(C(=O)c2ccc(C#N)cc2)s1` (single isomer, unassigned) [Example 33.2, 2-(N-[4-amino-5-(4-cyanobenzoyl)thiazol-2-yl]-4-fluoro-anilino)propanamide], the IC50 amounted to 22.8 nM.

For the compound `CC(C(N)=O)N(c1ccc(Cl)cc1)c1nc(N)c(C(=O)c2ccc(F)cc2)s1` (single isomer, unassigned) [Example 37.1, 2-(N-[4-amino-5-(4-fluorobenzoyl)thiazol-2-yl]-4-chloro-anilino)propanamide], the IC50 is 2000 nM.

On to `CC(C(N)=O)N(c1ccc(Cl)cc1)c1nc(N)c(C(=O)c2ccc(F)cc2)s1` (single isomer, unassigned) [Example 37.2, 2-(N-[4-amino-5-(4-fluorobenzoyl)thiazol-2-yl]-4-chloro-anilino)propanamide], for which the IC50 is 9.46 nM.

Turning to `CC(C(N)=O)N(c1ccc(F)cc1)c1nc(N)c(C(=O)c2ccc(Cl)cc2)s1` (single isomer, unassigned) [Example 38.1, 2-(N-[4-amino-5-(4-chlorobenzoyl)thiazol-2-yl]-4-fluoro-anilino)propanamide], the IC50 came to 2000 nM.

For `CC(C(N)=O)N(c1ccc(F)cc1)c1nc(N)c(C(=O)c2ccc(OC(F)(F)F)cc2)s1` (single isomer, unassigned) [Example 40.1, 2-(N-[4-amino-5-[4-(trifluoromethoxy)benzoyl]thiazol-2-yl]-4-fluoro-anilino)propanamide], the IC50 came out at 792 nM.

On to `CC(C(N)=O)N(c1ccc(F)cc1)c1nc(N)c(C(=O)c2ccc(OC(F)(F)F)cc2)s1` (single isomer, unassigned) [Example 40.2, 2-(N-[4-amino-5-[4-(trifluoromethoxy)benzoyl]thiazol-2-yl]-4-fluoro-anilino)propanamide], for which the IC50 turned out to be 7.08 nM.

Consider `CC(C(N)=O)N(c1ccc(Cl)cc1)c1nc(N)c(C(=O)c2ccc(Cl)cc2)s1` (single isomer, unassigned) [Example 41.1, 2-(N-[4-amino-5-(4-chlorobenzoyl)thiazol-2-yl]-4-chloro-anilino)propanamide], for which the IC50 was found to be 2930 nM.

As for `CC(C(N)=O)N(c1ccc(Cl)cc1)c1nc(N)c(C(=O)c2ccc(Cl)cc2)s1` (single isomer, unassigned) [Example 41.2, 2-(N-[4-amino-5-(4-chlorobenzoyl)thiazol-2-yl]-4-chloro-anilino)propanamide], the IC50 was 7.73 nM.

In the case of `CC(C(N)=O)N(c1ccc(C(F)(F)F)cc1)c1nc(N)c(C(=O)c2ccc(OC(F)F)cc2)s1` (single isomer, unassigned) [Example 43.1, 2-[N-[4-amino-5-[4-(difluoromethoxy)benzoyl]thiazol-2-yl)-4-(trifluoromethyl)anilino]propanamide], the IC50 was 2730 nM.

Take `CC(C(N)=O)N(c1ccc(C(F)(F)F)cc1)c1nc(N)c(C(=O)c2ccc(OC(F)F)cc2)s1` (single isomer, unassigned) [Example 43.2]: the IC50 stood at 5.93 nM.

Consider `CC(C(N)=O)N(c1ccc(F)cc1)c1nc(N)c(C(=O)c2ccc(OC(F)F)cc2)s1` (single isomer, unassigned) [Example 44.1, 2-(N-[4-amino-5-[4-(difluoromethoxy)benzoyl]thiazol-2-yl]-4-fluoro-anilino)propanamide], for which the IC50 stood at 1390 nM.

A word on the IC50: it is the concentration at which inhibition is half-maximal.
